{"source": "patent US20100098670A1", "about": "“Autologous dental pulp stem cell-based bone graft substitute” (Cerapedics Inc., priority 2007, published 2010)", "key": {"[1]": {"test_system": "human dental pulp explants", "assay": "Cell outgrowth from human dental pulp explants cultured with scaffolds (live/dead markers, confocal microscopy, SEM)", "format": "cell-based", "conditions": "fluorescence, confocal or SEM images", "description": "(§1) The HDPSCs were isolated from human dental pulp tissues and cultured on ABM and ABM-P-15 scaffolds in media. The cultured cells on the scaffolds were analysed by live/dead fluorescent markers, histological staining (ALP, Alizalin Red, Toluidine blue), confocal microscopy and scanning electron microscopy. The effect of P-15 on HDPSCs BMP-2 production was confirmed by a well developed promyoblast induction assay via co-culturing of C2C12 promyoblasts and HDPSCs on ABM or ABM-P-15. […] Cell outgrowth from the explants was assessed by live/dead fluorescent markers, histological staining (ALP), confocal microscope and scanning electron microscopy.\nTeeth were obtained with patients' informed consent following project approval by the NHS local ethical committee (COREC: 06/Q1206/165). Human dental pulp was extracted from sound intact teeth, which had been surgically removed at the Leeds Dental Institute for clinical reasons. Each tooth was washed within a Class II hood and cracked in a bench vice. The dental pulp tissues were harvested and washed with 1×PBS and minced into small pieces (1×2×2 mm^3) which were kept in the PBS and ready for use.\nPepGen P-15 (ABM-P15) and/or Osteo-Graf/N-300 (ABM alone) were provided by Cerapedics Inc. (Lakewood, Colo.) in a particulate form. 50 mg of ABM-P-15 and ABM alone were transferred into the 48 well plates and sterilized under UV radiation for 30 minutes. […]"}, "HDPSCs": {"test_system": "HDPSCs", "assay": "ALP and toluidine blue staining of HDPSCs cultured on scaffolds", "format": "cell-based, human", "conditions": "isolated HDPSCs on scaffolds", "description": "as §1"}}, "note": "Entries after “also recorded” stand apart in the source; their conditions may differ. Ends that are not written are not given here.", "data": [{"sequence": "GTPGPQGIAGQRGVV [P-15, collagen mimetic, 15 amino acid residues of the α1(I) chain of collagen]", "values": [{"measurement": "outgrowth of HDPSCs from dental pulp explants", "setting": "[1]; 50 mg scaffold, basal media", "result": "enhanced the outgrowth"}, {"measurement": "cell bridge formation between adjacent scaffold particles", "setting": "[1]; explant culture", "result": "promoted cell bridge formation"}, {"measurement": "HDPSCs differentiation along the osteogenic lineage (ALP expression)", "setting": "HDPSCs", "result": "promoted the HDPSCs differentiation along the osteogenic lineage; also recorded: promoted HDPSCs differentiation along the osteogenic lineage"}]}]}
